Laboratory results reported in the NIST ThermoML archive (doi:10.1016/j.jct.2009.09.007).
Numbers after ± are expanded uncertainties.

CCn1cc[n+](C)c1.O=S(=O)([N-]S(=O)(=O)C(F)(F)F)C(F)(F)F
Conditions	surface tension liquid-gas [mN/m]
283.16 K, Wilhelmy plate method	36.78 ± 0.07
283.2 K, Ring tensiometer	37.07 ± 0.51
287.3 K, Wilhelmy plate method	36.58 ± 0.07
292.6 K, Wilhelmy plate method	36.35 ± 0.06
297.89 K, Wilhelmy plate method	36.13 ± 0.06
297.95 K, Ring tensiometer	36.12 ± 0.64
302.66 K, Wilhelmy plate method	35.88 ± 0.06
308.82 K, Wilhelmy plate method	35.61 ± 0.06
313.3 K, Wilhelmy plate method	35.36 ± 0.04
317.77 K, Wilhelmy plate method	35.14 ± 0.07
323.16 K, Ring tensiometer	34.81 ± 0.48
323.19 K, Wilhelmy plate method	34.84 ± 0.04
327.91 K, Wilhelmy plate method	34.66 ± 0.04
327.97 K, Ring tensiometer	34.73 ± 0.48
333.82 K, Wilhelmy plate method	34.29 ± 0.18
333.86 K, Ring tensiometer	34.1 ± 0.47
337.84 K, Wilhelmy plate method	34.06 ± 0.13
337.88 K, Ring tensiometer	34.09 ± 0.47
343.6 K, Wilhelmy plate method	33.79 ± 0.23
346.9 K, Ring tensiometer	33.74 ± 0.47
346.93 K, Wilhelmy plate method	33.66 ± 0.16
351.54 K, Wilhelmy plate method	33.42 ± 0.18
351.67 K, Ring tensiometer	33.2 ± 0.46

CCCCn1cc[n+](C)c1.F[B-](F)(F)F [1-butyl-3-methylimidazolium tetrafluoroborate]
Conditions	surface tension liquid-gas [mN/m]
284.17 K, Wilhelmy plate method	45.29 ± 0.07
284.25 K, Ring tensiometer	45.44 ± 0.61
288.28 K, Wilhelmy plate method	44.98 ± 0.13
288.35 K, Ring tensiometer	45.15 ± 0.6
293.32 K, Wilhelmy plate method	44.56 ± 0.11
293.48 K, Ring tensiometer	44.57 ± 0.6
298.48 K, Wilhelmy plate method	44.26 ± 0.1
298.5 K, Ring tensiometer	44.41 ± 0.59
303.41 K, Wilhelmy plate method	43.84 ± 0.1
303.51 K, Ring tensiometer	44.05 ± 0.59
308.38 K, Wilhelmy plate method	43.68 ± 0.15
308.42 K, Ring tensiometer	43.63 ± 0.59
313.73 K, Ring tensiometer	43.21 ± 0.58
313.79 K, Wilhelmy plate method	43.21 ± 0.2
318.15 K, Wilhelmy plate method	43 ± 0.15
318.19 K, Ring tensiometer	43.19 ± 0.58
323.01 K, Ring tensiometer	42.84 ± 0.58
323.03 K, Wilhelmy plate method	42.58 ± 0.33
327.8 K, Wilhelmy plate method	42.46 ± 0.1
327.9 K, Ring tensiometer	42.62 ± 0.57
333.11 K, Wilhelmy plate method	42.15 ± 0.27
333.12 K, Ring tensiometer	42.07 ± 0.57
337.64 K, Wilhelmy plate method	41.96 ± 0.1
337.65 K, Ring tensiometer	41.78 ± 0.56
342.32 K, Ring tensiometer	41.71 ± 0.56
342.4 K, Wilhelmy plate method	41.56 ± 0.34
348.62 K, Ring tensiometer	41.16 ± 0.56
348.74 K, Wilhelmy plate method	41.3 ± 0.19
351.23 K, Wilhelmy plate method	40.89 ± 0.18
351.44 K, Ring tensiometer	40.85 ± 0.56

CCCC[n+]1ccn(C)c1.O=S(=O)([N-]S(=O)(=O)C(F)(F)F)C(F)(F)F
Conditions	surface tension liquid-gas [mN/m]
284.15 K, Wilhelmy plate method	33.46 ± 0.11
284.19 K, Ring tensiometer	33.48 ± 0.47
287.81 K, Wilhelmy plate method	33.27 ± 0.11
294.2 K, Wilhelmy plate method	33.02 ± 0.06
298.35 K, Wilhelmy plate method	32.85 ± 0.06
298.41 K, Ring tensiometer	33.04 ± 0.46
301.96 K, Wilhelmy plate method	32.66 ± 0.07
306.81 K, Wilhelmy plate method	32.44 ± 0.07
310.81 K, Wilhelmy plate method	32.26 ± 0.07
317.93 K, Ring tensiometer	31.97 ± 0.45
317.94 K, Wilhelmy plate method	31.97 ± 0.06
322.99 K, Wilhelmy plate method	31.74 ± 0.04
327.92 K, Wilhelmy plate method	31.58 ± 0.07
332.97 K, Wilhelmy plate method	31.3 ± 0.07
337.12 K, Wilhelmy plate method	31.17 ± 0.22
343.28 K, Wilhelmy plate method	30.91 ± 0.23
347.82 K, Wilhelmy plate method	30.76 ± 0.15
348.05 K, Ring tensiometer	30.41 ± 0.43
351.56 K, Wilhelmy plate method	30.53 ± 0.13

CCCCCC[n+]1ccn(C)c1.O=S(=O)([N-]S(=O)(=O)C(F)(F)F)C(F)(F)F
Wilhelmy plate method
Conditions	surface tension liquid-gas [mN/m]
283.17 K	32.34 ± 0.09
287.86 K	32.07 ± 0.16
293.15 K	31.81 ± 0.06
298.26 K	31.59 ± 0.07
303.16 K	31.34 ± 0.07
308.99 K	30.99 ± 0.11
314.39 K	30.71 ± 0.06
318.21 K	30.48 ± 0.07
323.09 K	30.26 ± 0.09
327.93 K	30 ± 0.09
333.53 K	29.8 ± 0.13
337.7 K	29.45 ± 0.11
342.32 K	29.28 ± 0.18
347.3 K	29.06 ± 0.13
351.11 K	28.91 ± 0.32
